According to the NIST ThermoML archive (doi:10.1021/je100361s):
Numbers after ± are expanded uncertainties.

Conditions: 101.33 kPa, Liquid, Shanghai Precision & Scientific Instrument Co., LTD (DDS-307)

| electrical conductivity (298.15 K) | electrical conductivity (303.15 K) | electrical conductivity (308.15 K) | electrical conductivity (313.15 K) | electrical conductivity (318.15 K) | Compound |
| --- | --- | --- | --- | --- | --- |
| 4.4e-05 ± 2.6e-06 S/m | 5.55e-05 ± 3.3e-06 S/m | 6.58e-05 ± 4e-06 S/m | 6.9e-05 ± 4.1e-06 S/m | 8e-05 ± 4.8e-06 S/m | CCCCO [butan-1-ol] |
| 0.000413 ± 2.5e-05 S/m | 0.000504 ± 3e-05 S/m | 0.000584 ± 3.5e-05 S/m | 0.000644 ± 3.9e-05 S/m | 0.000711 ± 4.3e-05 S/m | CCO [ethanol] |
| 5.2e-05 ± 3.1e-06 S/m | 7e-05 ± 4.2e-06 S/m | 7.5e-05 ± 4.5e-06 S/m | 8.08e-05 ± 4.9e-06 S/m | 8.43e-05 ± 5.1e-06 S/m | CC(C)O [propan-2-ol] |
|  | 0.00287 ± 0.00017 S/m | 0.00323 ± 0.00019 S/m | 0.00349 ± 0.00021 S/m | 0.00375 ± 0.00022 S/m | O [water] |
